Ring closure, isolated yield, growth inhibition and ring closure, yield after HPLC data for six substances are collected here from article PMC11311250 (Organic & biomolecular chemistry, 2023).

Where two headings read alike, the source gives them in different places.

The conditions of data set [1]: amide bond, 12-membered ring.
The next data set deals with P. aeruginosa K799. Briefly: antibacterial microdilution growth inhibition. It is filed as cell-based, Pseudomonas aeruginosa. For orientation: Broth dilution looks for growth in wells or tubes with falling amounts of substance.
For data set [2] the following is noted: amide bond; 12-membered ring; T3P/DIEA; DMF; 45.0 °C.
The mark [3] stands for this setting: T3P/DIEA, DCE, 1.0 mM, 80.0 °C, 3 steps.
Setting [4] is: T3P/collidine, DCE, 1.0 mM, 80.0 °C, 3 steps.

In turn, “(3S,6S,9R,12S)-3,9-dibenzyl-1,6,7,12-tetramethyl-1,4,7,10-tetraazacyclododecane-2,5,8,11-tetraone (cyclo (L-N-Me-Ala–L-Phe–L-N-Me-Ala-D-Phe))” showed a ring closure, isolated yield in data set [1] (setting [3]) of 5%.

As for ALAL, in data set [1] (setting [4]), the ring closure, isolated yield came out at 11%.

“all-L cyclo(N-Me-Leu–Phe)2 (head to tail) [pseudoxylallemycin A]”: in the data set on P. aeruginosa K799, the growth inhibition entry is given as “failed to inhibit the growth”.

In turn, epi-pseudoxylallemycin yielded a ring closure, isolated yield in data set [1] (T3P/DIEA, DCM/DMF 9:1, 45.0 °C) of 26%.

epi-pseudoxylallemycin A gave a ring closure, isolated yield in data set [1] (setting [4]) of 33%.

pseudoxylallemycin A displayed a ring closure, yield after HPLC in data set [2] of 24%. Further, the ring closure, isolated yield is 18.1% in data set [1] (setting [3]); 11.7% in data set [1] (T3P/DIEA, DMF, 1.0 mM, 45.0 °C, 3 steps); 14.7% in data set [1] (T3P/DIEA, DMF, 1.0 mM, 80.0 °C, 3 steps); 19% in data set [1] (T3P/DtBP, DCE, 1.0 mM, 80.0 °C, 3 steps); 36% in data set [1] (setting [4]); 32% in data set [1] (T3P/pyridine, DCE, 1.0 mM, 80.0 °C, 3 steps).
